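96-well plates; 48 h exposure; 5 concentrations. Endpoints by linear interpolation between flanking doses. Not reached: highest tested concentration assigned. The concentration for 50% growth inhibition is given as GI50.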 Active and inactive are the calls of the source. Cut-off read from the data, not from the text of the source: active = GI50 up to about 1.1 µM and inactive = higher.
How the values were obtained:
Assay in all cases: DTP human tumour cell line panel, 48 h
A498 = system: A498
A549 = system: A549
CAKI-1 = system: CAKI-1
COLO 205 = system: COLO 205
K562 = system: K562
NCI-H23 = system: NCI-H23
NCI-H460 = system: NCI-H460
OVCAR-8 = system: OVCAR-8
RPMI-8226 = system: RPMI-8226
RXF 393 = system: RXF 393
SK-MEL-2 = system: SK-MEL-2
SK-MEL-5 = system: SK-MEL-5
UACC-257 = system: UACC-257
NCI-H226 = system: NCI-H226
SR = system: SR

Measured: GI50

CN(CC(=O)O)S(=O)(=O)c1ccc2ccccc2c1
inactive: A498 > 100 µM | A549 > 100 µM | CAKI-1 > 100 µM | COLO 205 > 100 µM | K562 > 100 µM | NCI-H23 > 100 µM | NCI-H460 > 100 µM | OVCAR-8 > 100 µM | RPMI-8226 > 100 µM | RXF 393 > 100 µM | SK-MEL-2 > 100 µM | SK-MEL-5 > 100 µM | UACC-257 > 100 µM

C#C[C@]1(O)CCC2C3CCc4cc(Oc5nc(F)nc(-n6c(C)nc7cc8ccccc8cc76)n5)ccc4C3CCC21C (some centres not stated)
inactive: A549 41.5 µM | COLO 205 20.6 µM | K562 34 µM | NCI-H226 47.8 µM | NCI-H23 59.4 µM | NCI-H460 25.4 µM | OVCAR-8 39.1 µM | RPMI-8226 38.2 µM | RXF 393 48.9 µM | SK-MEL-2 45.3 µM | SK-MEL-5 35.6 µM | UACC-257 86.5 µM

CC(C)(C)N/N=C(\C(=O)Nc1cccc(Cl)c1)C1C(=O)Nc2ccccc2[S+]1[O-] (configuration not stated)
inactive: A549 > 100 µM | CAKI-1 > 100 µM | COLO 205 > 100 µM | NCI-H226 > 100 µM | NCI-H23 > 100 µM | NCI-H460 > 100 µM | OVCAR-8 > 100 µM | RXF 393 > 100 µM | SK-MEL-2 > 100 µM | SK-MEL-5 > 100 µM | SR > 100 µM | UACC-257 > 100 µM

CC1=Nn2c(nnc2-c2ccc(Cl)cc2)NC(C)(C)C1
inactive: A498 > 100 µM | A549 > 100 µM | CAKI-1 > 100 µM | COLO 205 > 100 µM | K562 > 100 µM | NCI-H226 > 100 µM | NCI-H23 > 100 µM | NCI-H460 > 100 µM | RPMI-8226 > 100 µM | SK-MEL-2 > 100 µM | SK-MEL-5 > 100 µM | UACC-257 > 100 µM

COc1ccc2ccc3c(c2c1)CN1CCc2cc(OC)c(OC)cc2C1C3 (configuration not stated)
inactive: CAKI-1 > 100 µM | COLO 205 > 100 µM | K562 > 100 µM | NCI-H226 > 100 µM | NCI-H23 > 100 µM | NCI-H460 > 100 µM | OVCAR-8 > 100 µM | RPMI-8226 > 100 µM | SK-MEL-2 > 100 µM | SK-MEL-5 > 100 µM | SR > 100 µM | UACC-257 > 100 µM

[O-][S+]1c2ccccc2N=C(c2ccc3ccccc3c2)CC1C1=CC=CCC1 (configuration not stated)
inactive: A549 26.3 µM | CAKI-1 16.1 µM | COLO 205 20.5 µM | K562 10.3 µM | NCI-H226 19.4 µM | NCI-H23 14.6 µM | NCI-H460 20.3 µM | OVCAR-8 20.3 µM | RPMI-8226 8.75 µM | RXF 393 16.8 µM | SK-MEL-2 19.1 µM | SK-MEL-5 16.6 µM | UACC-257 18.3 µM

CC1=C(C(=O)Nc2ccccc2)C(c2ccccc2)C(C(=O)Nc2ccccc2)=C(C)N1
inactive: A498 86.1 µM | A549 35.2 µM | CAKI-1 4.74 µM | COLO 205 38.4 µM | NCI-H226 > 100 µM | NCI-H23 43.1 µM | NCI-H460 45.8 µM | OVCAR-8 75 µM | RXF 393 26.5 µM | SK-MEL-2 32.1 µM | SK-MEL-5 36.9 µM | UACC-257 36.1 µM

C=C(C)CC(C)(c1cc2ccccc2n1C)N1CCOCC1 (configuration not stated)
inactive: A549 59.2 µM | CAKI-1 80.5 µM | COLO 205 > 100 µM | NCI-H226 69.8 µM | NCI-H23 55.1 µM | NCI-H460 60.8 µM | OVCAR-8 67.1 µM | RXF 393 65.5 µM | SK-MEL-2 > 100 µM | SK-MEL-5 42.2 µM | SR 69 µM | UACC-257 95.1 µM

CCOC(=O)C(=O)Nc1ccc(Cl)cc1C
inactive: A549 > 100 µM | CAKI-1 > 100 µM | COLO 205 > 100 µM | K562 > 100 µM | NCI-H226 > 100 µM | NCI-H23 > 100 µM | NCI-H460 > 100 µM | OVCAR-8 > 100 µM | RPMI-8226 > 100 µM | RXF 393 > 100 µM | SK-MEL-2 > 100 µM | SK-MEL-5 > 100 µM | SR > 100 µM | UACC-257 > 100 µM

CN1C(=O)CC2(C)c3cc(O)cc(Br)c3N(C)C12 (configuration not stated)
inactive: A498 > 100 µM | A549 > 100 µM | COLO 205 > 100 µM | K562 > 100 µM | NCI-H226 > 100 µM | NCI-H23 > 100 µM | NCI-H460 > 100 µM | OVCAR-8 > 100 µM | RXF 393 > 100 µM | SK-MEL-2 > 100 µM | SK-MEL-5 > 100 µM | UACC-257 > 100 µM

CC(=O)Nc1ccccc1S(=O)(=O)c1ccccc1
inactive: A498 > 100 µM | A549 > 100 µM | CAKI-1 > 100 µM | COLO 205 > 100 µM | K562 > 100 µM | NCI-H226 > 100 µM | NCI-H23 > 100 µM | NCI-H460 > 100 µM | OVCAR-8 > 100 µM | RPMI-8226 > 100 µM | RXF 393 > 100 µM | SK-MEL-2 > 100 µM | SK-MEL-5 > 100 µM | UACC-257 > 100 µM

Cc1ccc(NC(=O)C2C(=O)N(c3ccc(C)cc3)C(=O)/C2=N\NC(N)=S)cc1 (configuration not stated)
inactive: A498 > 100 µM | CAKI-1 > 100 µM | COLO 205 > 100 µM | K562 > 100 µM | NCI-H226 > 100 µM | NCI-H23 > 100 µM | NCI-H460 > 100 µM | OVCAR-8 > 100 µM | RPMI-8226 > 100 µM | RXF 393 > 100 µM | SK-MEL-2 > 100 µM | SK-MEL-5 > 100 µM | UACC-257 > 100 µM

CCCCCCCCCCCCC(Br)C(=O)SCCNC(=O)CCNC(=O)[C@@H](O)C(C)(C)COP(=O)(O)OP(=O)(O)OCC1OC(n2cnc3c(N)ncnc32)C(O)C1OP(=O)(O)O (some centres not stated)
inactive: A498 > 56.5 µM | A549 > 56.5 µM | COLO 205 > 56.5 µM | NCI-H226 > 56.5 µM | NCI-H23 > 56.5 µM | NCI-H460 22.5 µM | OVCAR-8 54.3 µM | RXF 393 > 56.5 µM | SK-MEL-2 > 56.5 µM | SK-MEL-5 > 56.5 µM | UACC-257 14.6 µM

CC12CO[C@@](C)(CC(S(=O)(=O)c3ccccc3)C1)O2 (some centres not stated)
inactive: A549 > 100 µM | COLO 205 > 100 µM | K562 > 100 µM | NCI-H23 > 100 µM | NCI-H460 > 100 µM | OVCAR-8 > 100 µM | RPMI-8226 > 100 µM | RXF 393 > 100 µM | SK-MEL-2 > 100 µM | SK-MEL-5 > 100 µM | SR > 100 µM | UACC-257 > 100 µM

C/C(=C\C(C[C@](C)(O)C(O)CCC#C[Si](C)(C)C)S(=O)(=O)c1ccccc1)CC/C=C/CO[Si](C)(C)C(C)(C)C (some centres not stated)
inactive: A498 17.5 µM | A549 15 µM | CAKI-1 18.6 µM | K562 10.7 µM | NCI-H226 22.1 µM | NCI-H23 18.2 µM | NCI-H460 12.5 µM | OVCAR-8 17.2 µM | RPMI-8226 10.1 µM | RXF 393 14.7 µM | SK-MEL-2 18 µM | SK-MEL-5 13.6 µM | UACC-257 17.3 µM

— ChEMBL document CHEMBL1201862, “PubChem BioAssay data set” (2004)
